Key:
[1] = cited from earlier work
rat nNOS [2] = biological target: T1, rat nNOS (Rattus norvegicus, UniProt P29476); assay: biochemical
rat nNOS [3] = biological target: T1, rat nNOS; conditions: ratio of respective Ki values (eNOS vs rnNOS)
serotonin 5-HT1A = biological target: T2, serotonin 5-HT1A (Homo sapiens, UniProt P08908); assay: NIMH PDSP CNS receptor radioligand binding
T2 sequence (P08908 1-422): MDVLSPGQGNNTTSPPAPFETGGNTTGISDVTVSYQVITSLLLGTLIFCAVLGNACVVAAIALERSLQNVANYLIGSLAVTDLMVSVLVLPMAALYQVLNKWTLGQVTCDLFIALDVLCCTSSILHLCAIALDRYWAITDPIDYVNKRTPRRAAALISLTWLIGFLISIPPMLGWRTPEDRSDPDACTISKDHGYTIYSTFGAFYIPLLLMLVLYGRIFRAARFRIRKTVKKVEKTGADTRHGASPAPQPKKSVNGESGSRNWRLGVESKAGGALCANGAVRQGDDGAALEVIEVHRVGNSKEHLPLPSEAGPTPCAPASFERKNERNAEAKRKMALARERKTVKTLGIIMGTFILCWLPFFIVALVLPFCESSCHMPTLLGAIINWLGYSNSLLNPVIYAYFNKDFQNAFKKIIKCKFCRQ

CYP2D6 = CYP2D6 (Homo sapiens, UniProt P10635); assay: CYP inhibition assay in human liver microsomes; type: in vitro ADME; conditions: 10 μM
Chain of CYP2D6 (P10635 whole entry): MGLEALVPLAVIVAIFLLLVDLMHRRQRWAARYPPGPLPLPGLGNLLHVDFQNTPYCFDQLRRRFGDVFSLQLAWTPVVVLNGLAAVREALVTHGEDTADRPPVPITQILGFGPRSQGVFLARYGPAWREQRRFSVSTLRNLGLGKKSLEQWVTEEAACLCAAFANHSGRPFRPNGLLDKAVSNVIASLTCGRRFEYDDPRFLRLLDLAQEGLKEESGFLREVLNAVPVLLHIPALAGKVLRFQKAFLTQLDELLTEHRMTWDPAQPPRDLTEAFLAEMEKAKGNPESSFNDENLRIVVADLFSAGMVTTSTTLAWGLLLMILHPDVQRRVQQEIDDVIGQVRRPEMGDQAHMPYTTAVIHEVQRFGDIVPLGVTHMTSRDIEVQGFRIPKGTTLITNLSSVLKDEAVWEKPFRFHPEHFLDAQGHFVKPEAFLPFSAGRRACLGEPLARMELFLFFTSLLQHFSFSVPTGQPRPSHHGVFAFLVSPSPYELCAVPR

serotonin 5-HT2A = serotonin 5-HT2A (Homo sapiens, UniProt P28223); assay: NIMH PDSP CNS receptor radioligand binding
Chain of serotonin 5-HT2A (P28223 whole entry): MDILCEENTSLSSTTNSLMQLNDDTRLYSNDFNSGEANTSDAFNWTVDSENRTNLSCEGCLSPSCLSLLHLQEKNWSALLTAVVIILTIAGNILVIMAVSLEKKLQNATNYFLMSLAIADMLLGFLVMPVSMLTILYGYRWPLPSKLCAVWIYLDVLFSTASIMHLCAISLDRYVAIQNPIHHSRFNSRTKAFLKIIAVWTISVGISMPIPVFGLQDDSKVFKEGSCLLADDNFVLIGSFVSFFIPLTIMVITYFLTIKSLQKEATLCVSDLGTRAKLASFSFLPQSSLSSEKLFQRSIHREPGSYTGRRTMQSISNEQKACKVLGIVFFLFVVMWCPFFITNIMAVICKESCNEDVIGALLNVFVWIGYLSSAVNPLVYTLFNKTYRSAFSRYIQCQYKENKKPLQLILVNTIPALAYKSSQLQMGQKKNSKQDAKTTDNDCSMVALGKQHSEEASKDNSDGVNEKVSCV

dopamine D3 receptor = dopamine D3 receptor (Homo sapiens, UniProt P35462); assay: NIMH PDSP CNS receptor radioligand binding
Chain of dopamine D3 receptor (P35462 whole entry, species assumed): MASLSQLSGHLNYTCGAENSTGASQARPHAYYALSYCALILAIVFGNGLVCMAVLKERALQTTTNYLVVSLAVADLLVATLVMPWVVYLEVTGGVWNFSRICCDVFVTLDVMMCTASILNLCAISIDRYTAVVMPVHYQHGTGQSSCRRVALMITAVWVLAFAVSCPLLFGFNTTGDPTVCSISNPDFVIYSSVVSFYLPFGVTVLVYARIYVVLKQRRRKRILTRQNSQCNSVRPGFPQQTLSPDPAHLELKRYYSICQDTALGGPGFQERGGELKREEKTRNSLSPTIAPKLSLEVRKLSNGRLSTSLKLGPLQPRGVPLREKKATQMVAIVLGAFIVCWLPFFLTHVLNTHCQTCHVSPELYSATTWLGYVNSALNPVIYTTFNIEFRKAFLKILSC

CYP2C19 = CYP2C19 (Homo sapiens, UniProt P33261); assay: CYP inhibition assay in human liver microsomes; type: in vitro ADME; conditions: 10 μM
Chain of CYP2C19 (P33261 whole entry): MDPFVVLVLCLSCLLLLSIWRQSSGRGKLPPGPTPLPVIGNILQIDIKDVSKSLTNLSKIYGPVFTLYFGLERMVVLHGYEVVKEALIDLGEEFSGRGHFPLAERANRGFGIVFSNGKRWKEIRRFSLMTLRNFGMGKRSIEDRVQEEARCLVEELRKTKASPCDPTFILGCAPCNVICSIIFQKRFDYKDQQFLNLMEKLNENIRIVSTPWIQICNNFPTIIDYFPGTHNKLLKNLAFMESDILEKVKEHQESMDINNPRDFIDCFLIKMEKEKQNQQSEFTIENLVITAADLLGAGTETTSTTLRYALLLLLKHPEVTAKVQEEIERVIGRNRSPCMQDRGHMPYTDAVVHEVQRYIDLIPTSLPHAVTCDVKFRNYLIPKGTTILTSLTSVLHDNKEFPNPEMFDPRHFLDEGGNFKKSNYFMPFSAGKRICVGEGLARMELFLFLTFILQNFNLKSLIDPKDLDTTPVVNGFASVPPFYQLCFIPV

CYP3A4 = CYP3A4 (Homo sapiens, UniProt P08684); assay: CYP inhibition assay in human liver microsomes; type: in vitro ADME; conditions: 10 μM
Chain of CYP3A4 (P08684 whole entry): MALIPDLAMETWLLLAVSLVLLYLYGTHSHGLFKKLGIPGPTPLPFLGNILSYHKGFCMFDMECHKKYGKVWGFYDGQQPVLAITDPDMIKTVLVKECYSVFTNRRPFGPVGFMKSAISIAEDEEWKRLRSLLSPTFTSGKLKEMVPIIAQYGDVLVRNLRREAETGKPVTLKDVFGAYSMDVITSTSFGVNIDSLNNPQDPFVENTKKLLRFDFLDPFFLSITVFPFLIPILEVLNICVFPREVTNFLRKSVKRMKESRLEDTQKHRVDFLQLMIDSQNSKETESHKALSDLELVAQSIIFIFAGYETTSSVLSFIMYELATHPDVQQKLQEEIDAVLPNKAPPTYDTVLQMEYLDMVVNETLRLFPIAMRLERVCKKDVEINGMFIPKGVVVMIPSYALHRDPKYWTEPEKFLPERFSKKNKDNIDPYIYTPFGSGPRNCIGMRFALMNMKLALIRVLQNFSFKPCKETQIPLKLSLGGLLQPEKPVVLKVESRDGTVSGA

T1 sequence (P29476 whole entry): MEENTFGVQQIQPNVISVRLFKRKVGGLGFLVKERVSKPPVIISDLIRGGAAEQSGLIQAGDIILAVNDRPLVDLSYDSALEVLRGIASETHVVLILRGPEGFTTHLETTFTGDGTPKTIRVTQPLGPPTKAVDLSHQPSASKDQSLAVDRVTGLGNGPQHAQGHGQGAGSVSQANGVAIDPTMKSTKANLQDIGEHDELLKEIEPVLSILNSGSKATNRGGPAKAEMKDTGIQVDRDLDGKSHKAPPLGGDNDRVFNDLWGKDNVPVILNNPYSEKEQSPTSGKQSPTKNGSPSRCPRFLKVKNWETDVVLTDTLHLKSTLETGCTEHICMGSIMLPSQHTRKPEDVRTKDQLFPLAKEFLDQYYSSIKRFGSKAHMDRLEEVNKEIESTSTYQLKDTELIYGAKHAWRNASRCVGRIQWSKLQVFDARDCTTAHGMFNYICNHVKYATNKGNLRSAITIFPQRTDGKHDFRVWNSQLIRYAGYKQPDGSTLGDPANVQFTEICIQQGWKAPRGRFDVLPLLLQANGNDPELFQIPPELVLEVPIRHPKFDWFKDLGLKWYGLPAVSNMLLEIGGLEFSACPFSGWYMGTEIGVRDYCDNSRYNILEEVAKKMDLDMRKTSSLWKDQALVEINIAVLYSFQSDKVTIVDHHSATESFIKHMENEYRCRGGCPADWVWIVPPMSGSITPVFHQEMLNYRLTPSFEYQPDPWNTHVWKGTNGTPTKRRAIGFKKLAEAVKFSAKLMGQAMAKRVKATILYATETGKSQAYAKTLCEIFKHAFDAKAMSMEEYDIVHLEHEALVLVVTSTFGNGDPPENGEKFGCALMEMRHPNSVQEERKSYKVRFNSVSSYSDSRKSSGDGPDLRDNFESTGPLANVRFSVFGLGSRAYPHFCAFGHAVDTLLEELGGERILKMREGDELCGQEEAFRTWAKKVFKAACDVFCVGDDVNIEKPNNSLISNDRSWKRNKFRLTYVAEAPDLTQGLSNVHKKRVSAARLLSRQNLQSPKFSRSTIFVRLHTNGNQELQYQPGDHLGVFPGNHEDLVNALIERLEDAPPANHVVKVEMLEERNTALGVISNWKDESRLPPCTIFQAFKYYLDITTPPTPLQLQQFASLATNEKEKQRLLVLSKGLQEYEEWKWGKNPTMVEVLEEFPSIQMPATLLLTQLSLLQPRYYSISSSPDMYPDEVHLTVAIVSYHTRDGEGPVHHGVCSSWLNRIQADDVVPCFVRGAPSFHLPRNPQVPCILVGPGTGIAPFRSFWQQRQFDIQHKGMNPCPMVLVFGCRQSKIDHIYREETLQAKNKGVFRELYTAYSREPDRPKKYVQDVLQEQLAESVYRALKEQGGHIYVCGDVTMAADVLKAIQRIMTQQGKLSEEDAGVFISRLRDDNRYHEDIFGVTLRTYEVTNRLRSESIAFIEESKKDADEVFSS

For `c1c[nH]cn1` [imidazole], the “pKa of conjugate acid” value [1] is listed as 6.9.

Molecule `Fc1cccc(CCN2CCN(c3ccnc(-n4ccnc4)n3)CC2)c1` [Compound 4, 4-[4-(3-Fluorophenethyl)-1-piperazyl]-2-(1H-imidazol-1-yl)pyrimidine] has a Ki (rat nNOS [2]) of ~5 µM.

`Cl.Fc1cccc(CCNCCNc2ccnc(-n3ccnc3)n2)c1` [Compound 5, N^1-[2-(1H-Imidazol-1-yl)pyrimidin-4-yl]-N^2-(3-fluorophenethyl)ethane-1,2-diamine Trihydrochloride] gave a selectivity n/e (rat nNOS [3]) of 100.

In the case of `Cl.Fc1cccc(CCCNCCc2ccnc(-n3ccnc3)n2)c1` [Compound 9, N-2-[2-(1H-Imidazol-1-yl)pyrimidin-4-yl]ethyl-3-(3-fluorophenyl)propan-1-amine Dihydrochloride], the Ki (serotonin 5-HT1A) is reported as ≥ 500 nM, the “decrease of CYP2D6 activity” value (CYP2D6) is reported as “more than 70%” and the Ki (serotonin 5-HT2A) is reported as ≥ 500 nM. For the same molecule, the Ki (dopamine D3 receptor) was ≥ 500 nM, the “decrease of CYP2C19 activity” value (CYP2C19) was “more than 70%” and the “decrease of CYP3A4 activity” value (CYP3A4) was “more than 70%”.

— PMC4329833 (Journal of Medicinal Chemistry, 2014)
